Several values for one entry are separate records, joined by “and”; a condition that tells them apart may be missing. Identical values can stand only once.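 The compound was tested at five concentrations on cells cultured in 96-well plates, with a 48-hour exposure period. Here, GI50 denotes the concentration required for 50% inhibition of growth. TGI: concentration producing complete growth inhibition.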

Test systems include T-47D breast; SNB-19 CNS; MDA-MB-435; KM12 colon; SF-295 CNS; ACHN renal; SK-OV-3 ovarian; HT29 colon; HOP-62 NSCLC; NCI-H522 lung; SNB-75 CNS; RPMI-8226 leukemia; NCI/ADR-RES ovarian; MALME-3M melanoma; 786-0 renal; SK-MEL-28 melanoma; BT-549 breast; HCC-2998 colon.
Common to all, as to assay: DTP human tumour cell line panel, 48 h

As a reminder, the TGI is the concentration at which net growth stops. Consider `CC(C)(C)OC(=O)N1CC(CCl)c2ccc(O)cc21` (stereo unspecified), for which the TGI in the assay on T-47D breast came out at 12.7 µM; in the assay on SNB-19 CNS it was 10.6 µM; in the assay on MDA-MB-435, 4.06 µM; with KM12 colon, 4.6 µM; in the assay with SF-295 CNS, 18.7 µM; in the assay with ACHN renal it was 3.38 µM. In addition, the concentration for total growth inhibition (TGI) in the assay with SK-OV-3 ovarian was 11.8 µM; with HT29 colon it was 11 µM; in the assay with HOP-62 NSCLC it was 12.9 µM; in the assay on NCI-H522 lung, 2.01 µM; in the assay with SNB-75 CNS, 3.11 µM; with RPMI-8226 leukemia, 7.96 µM. Also, the concentration for total growth inhibition (TGI) in the assay on NCI/ADR-RES ovarian came to 3.68 µM; with MALME-3M melanoma it was 3.01 µM; in the assay on 786-0 renal, 12.3 µM; in the assay on SK-MEL-28 melanoma, 4.17 µM; in the assay with BT-549 breast, 4.61 µM; with HCC-2998 colon, 2.02 µM.
Regarding `CC(=O)Nc1ccc2c3c(cc(O)c2c1)N(C(=O)CCCCC(=O)N1CC(CCl)c2c1cc(O)c1cc(NC(C)=O)ccc21)CC3CCl` (stereo unspecified), the TGI is 0.0973 µM in the assay on T-47D breast; 5.02 µM in the assay on SNB-19 CNS; 0.71 µM in the assay on MDA-MB-435; 14 µM with KM12 colon; > 24.1 µM in the assay on SF-295 CNS; 1.49 µM in the assay with ACHN renal. In addition, the TGI was > 64.5 µM in the assay on SK-OV-3 ovarian; > 30.4 µM with HT29 colon; 8.78 µM with HOP-62 NSCLC; 0.545 µM in the assay with NCI-H522 lung; 0.297 µM with SNB-75 CNS; 0.635 µM with RPMI-8226 leukemia. For the same compound, the TGI in the assay with NCI/ADR-RES ovarian is > 100 µM; in the assay on MALME-3M melanoma, 0.575 µM; in the assay with 786-0 renal it was 0.992 µM; in the assay on SK-MEL-28 melanoma, > 33.3 µM; in the assay with BT-549 breast, 2.31 µM; in the assay with HCC-2998 colon, 0.443 µM.
In the case of `CCOC(=O)Nc1sc2c(c1C#N)CC(C)CC2` (stereo unspecified), the TGI with T-47D breast is > 100 µM; with SNB-19 CNS, 27 µM; with MDA-MB-435, > 100 µM; in the assay with KM12 colon it was 36 µM; in the assay on SF-295 CNS, > 100 µM; with ACHN renal it was 88.5 µM. Further, the TGI was > 100 µM in the assay on SK-OV-3 ovarian; 10.9 µM in the assay with HT29 colon; > 100 µM in the assay with HOP-62 NSCLC; 16.9 µM in the assay on NCI-H522 lung; 38.2 µM with SNB-75 CNS; 34.8 µM with RPMI-8226 leukemia. The TGI in the assay on NCI/ADR-RES ovarian was 7.86 µM; with MALME-3M melanoma it was 76.9 µM; in the assay on 786-0 renal it was 40.6 µM; in the assay on SK-MEL-28 melanoma, > 100 µM; in the assay with BT-549 breast, > 100 µM; in the assay on HCC-2998 colon, 11.2 µM.
Turning to `CCc1c2cc(OC)c(OC)cc2cc2c3cc(OC)c(OC)cc3cc[n+]12` (tested in a mixture with another compound), the TGI was > 67 µM with T-47D breast; 82.1 µM in the assay on SNB-19 CNS; 25.5 µM in the assay on MDA-MB-435; > 61.5 µM in the assay on KM12 colon; > 86.7 µM with SF-295 CNS; > 71.2 µM with ACHN renal. In addition, the concentration for total growth inhibition (TGI) in the assay with SK-OV-3 ovarian was > 97.2 µM; in the assay on HT29 colon, > 66.4 µM; in the assay with HOP-62 NSCLC, > 95.4 µM; in the assay on NCI-H522 lung it was 34.3 µM; in the assay on SNB-75 CNS, 38.4 µM; in the assay on RPMI-8226 leukemia it was > 47.3 µM. Besides, the TGI was > 61.1 µM in the assay with NCI/ADR-RES ovarian; 44.2 µM with MALME-3M melanoma; > 73 µM with 786-0 renal; > 79.4 µM in the assay on SK-MEL-28 melanoma; 17.4 µM in the assay with BT-549 breast; 52 µM in the assay with HCC-2998 colon.
Take `O=C(O)CCO/N=C1/C(c2c(O)[nH]c3ccccc23)=Nc2ccccc21`: the TGI was 72.6 µM with T-47D breast; > 100 µM in the assay on SNB-19 CNS; > 100 µM in the assay on MDA-MB-435; 38.9 µM with KM12 colon; > 100 µM with SF-295 CNS; > 100 µM with ACHN renal. For the same compound, the TGI is 21.1 µM in the assay with SK-OV-3 ovarian; 79.4 µM with HT29 colon; > 100 µM with HOP-62 NSCLC; > 100 µM in the assay with NCI-H522 lung; 53.5 µM with SNB-75 CNS; > 100 µM with RPMI-8226 leukemia. In addition, the TGI in the assay with NCI/ADR-RES ovarian is > 100 µM; in the assay on MALME-3M melanoma, > 100 µM; with 786-0 renal, 94.8 µM; with SK-MEL-28 melanoma, > 100 µM; in the assay with BT-549 breast, > 100 µM; with HCC-2998 colon, 35.7 µM.
By GI50 is commonly meant the concentration that inhibits growth by half. As to `Cc1ccc(/C=C2/N=C(N/N=C\C(O)C(O)C(O)CO)NC2=O)cc1` (stereo unspecified), the TGI in the assay with T-47D breast, with SNB-19 CNS, with MDA-MB-435, in the assay with KM12 colon, in the assay on SF-295 CNS and with ACHN renal was > 100 µM each time. The TGI in the assay with SK-OV-3 ovarian, in the assay with HT29 colon, in the assay with HOP-62 NSCLC, in the assay on NCI-H522 lung, in the assay with SNB-75 CNS and in the assay on RPMI-8226 leukemia was > 100 µM each time. The TGI in the assay on NCI/ADR-RES ovarian, with MALME-3M melanoma, in the assay on 786-0 renal, in the assay on SK-MEL-28 melanoma, in the assay with BT-549 breast and with HCC-2998 colon was > 100 µM throughout. Also, the GI50 in the assay with MALME-3M melanoma is > 100 µM and 42.1 µM; in the assay with HCC-2998 colon, > 100 µM and 30.9 µM.
As for `CNC(=O)N(CCC#N)CCN(C(=O)N(C)C)c1ccccc1`, the TGI with T-47D breast, in the assay with SNB-19 CNS, in the assay with MDA-MB-435, with KM12 colon, in the assay with SF-295 CNS and with ACHN renal was > 100 µM each time. Also, the TGI in the assay on SK-OV-3 ovarian, with HT29 colon, in the assay with HOP-62 NSCLC, in the assay with NCI-H522 lung, with SNB-75 CNS and with RPMI-8226 leukemia was > 100 µM each time. The TGI in the assay on NCI/ADR-RES ovarian, with MALME-3M melanoma, in the assay on 786-0 renal, in the assay with SK-MEL-28 melanoma, with BT-549 breast and with HCC-2998 colon was > 100 µM each time.
As for `CC(=O)c1c(SCCN2CCOCC2)n(-c2ccccc2)c(=S)n(-c2ccccc2)c1=O`, the TGI in the assay on T-47D breast was 55.5 µM; in the assay with SNB-19 CNS, > 55.2 µM; in the assay on MDA-MB-435, 33.6 µM; in the assay with KM12 colon, > 54.8 µM; in the assay with SF-295 CNS, > 100 µM; in the assay on ACHN renal it was 30.1 µM. The TGI was > 74.2 µM in the assay with SK-OV-3 ovarian; 52.9 µM in the assay with HT29 colon; > 65 µM with HOP-62 NSCLC; 48.4 µM in the assay with NCI-H522 lung; > 55.1 µM in the assay on SNB-75 CNS; > 29.4 µM with RPMI-8226 leukemia. In addition, the TGI was > 100 µM in the assay with NCI/ADR-RES ovarian; 58.6 µM in the assay on MALME-3M melanoma; 26.4 µM with 786-0 renal; 57.8 µM in the assay with SK-MEL-28 melanoma; 43 µM with BT-549 breast; 28.5 µM in the assay with HCC-2998 colon.

These data come from PubChem BioAssay (NCI).
